Values after ≈ are worked out from the molar mass of the structure shown.
How the values were obtained:
P450 2C9 = P450 2C9 (Homo sapiens (Human), UniProt P11712); test: Cytochrome P450 isoenzyme inhibition assay, hydroxylation of Diclofenac; assay type: in vitro ADME
P450 2C19 = P450 2C19 (Homo sapiens (Human), UniProt P33261); test: Cytochrome P450 isoenzyme inhibition assay, hydroxylation of Mephenytoin; assay type: in vitro ADME
P450 2D6 = P450 2D6 (Homo sapiens (Human), UniProt P10635); test: Cytochrome P450 isoenzyme inhibition assay, demethylation of Dextromethorphan; assay type: in vitro ADME
cIAP1 BIR3 = cIAP1 BIR3 (Homo sapiens (Human), UniProt Q13490); test: cIAP1 BIR3 binding assay (DELFIA), BIR3-SMAC peptide interaction; conditions: (S)-isomers; BIR3 domain 10 nM, SMAC peptide 10 nM; read-out: cIAP1 BIR-3 IC50
P450 3A4 = P450 3A4 (Homo sapiens (Human), UniProt P08684); test: Cytochrome P450 isoenzyme inhibition assay, hydroxylation of Midazolam; assay type: in vitro ADME
P450 2C8 = P450 2C8 (Homo sapiens (Human), UniProt P10632); test: Cytochrome P450 isoenzyme inhibition assay, deethylation of Amodiaquine; assay type: in vitro ADME
[1] = Solubility measurement (DMSO solution precipitation method); assay type: physicochemical; conditions: aqueous buffer, kinetic from dmso stock; for solubility kinetic at 24 h: (S)-isomers, McIlvaine buffer pH 6.8, 24 h shaking at ambient temperature, read-out: Sol pH 6.8; for solubility at 24 h: McIlvaine buffer, measured examples from WO 2013/127729 (Table 1), pH 6.8
[2] = (S)-isomers, human liver microsomes, 37° C.
[3] = measured examples from WO 2013/127729 (Table 1)

Structure (SMILES)	IC50 (P450 2C9; [2]) [µM]	IC50 (P450 2C19; [2]) [µM]	IC50 (P450 2D6; [2]) [µM]	IC50 (cIAP1 BIR3) [µM]	IC50 (P450 3A4; [2]) [µM]	IC50 (P450 2C8; [2]) [µM]	solubility kinetic at 24 h [1] [µg/mL]	IC50 (P450 2C9; [3]) [µM]	IC50 (P450 2C19; [3]) [µM]	IC50 (P450 2D6; [3]) [µM]	IC50 (P450 3A4; [3]) [µM]	IC50 (P450 2C8; [3]) [µM]	solubility at 24 h [1] [µg/mL]
CNC(C)C(=O)Nc1ccc(-c2c(-c3ccncc3)nc3cc(C)ccn23)c(C#Cc2ccc3c(ccc(=O)n3C)c2)n1 (stereo not shown) [Ex 81, reference compound]								0.9	2.8	3.4	4	1.2	8 (≈ 14.1 µM)
CNC(C)C(=O)Nc1ccc(-c2c(-c3ccncc3)nc3cc(C)ccn23)c(C#Cc2ccc(-c3ccon3)cc2)n1 (stereo not shown) [Ex 82, reference compound]								0.4	4.8	2.2	2.3	0.3	
CNC(C)C(=O)Nc1ccc(-c2c(-c3ccncc3)nc3cc(C)ccn23)c(C#Cc2ccc3c(c2)OCC(=O)N3C)n1 (stereo not shown) [Ex 94, reference compound]								0.7	2.9	3.3	> 50	4.9	
CNC(C)C(=O)Nc1ccc(-c2c(-c3ccncc3)nc3cc(C)ccn23)c(C#Cc2ccccc2)n1 (stereo not shown) [Ex 185, reference compound]								4.8	16	2.7	3	1.7	60 (≈ 123 µM)

Second part, the molecule after the results:

IC50 (P450 2C9; [2]) [µM]	IC50 (P450 2C19; [2]) [µM]	IC50 (P450 2D6; [2]) [µM]	IC50 (cIAP1 BIR3) [µM]	IC50 (P450 3A4; [2]) [µM]	IC50 (P450 2C8; [2]) [µM]	solubility kinetic at 24 h [1] [µg/mL]	IC50 (P450 2C9; [3]) [µM]	IC50 (P450 2C19; [3]) [µM]	IC50 (P450 2D6; [3]) [µM]	IC50 (P450 3A4; [3]) [µM]	IC50 (P450 2C8; [3]) [µM]	solubility at 24 h [1] [µg/mL]	Structure (SMILES)
> 50	1.9	> 50	0.001	> 50	0.9	8 (≈ 14.1 µM)							CN[C@@H](C)C(=O)Nc1ccc(-c2c(-c3ccnc(C)c3)nc3cc(C)ccn23)c(C#Cc2ccc3c(C)nccc3c2)n1 [(S)-2, (2S)-N-{5-[7-methyl-2-(2-methylpyridin-4-yl)imidazo[1,2-a]-pyridin-3-yl]-6-[2-(1-methylisoquinolin-6-yl)ethynyl]pyridin-2-yl}-2-(methylamino)-propanamide]
19	32		0.002	> 50	2.2	20 (≈ 33.2 µM)							CN[C@@H](C)C(=O)Nc1ccc(-c2c(-c3cccnc3OC)nc3cc(Cl)ccn23)c(C#Cc2ccc3c(C)nccc3c2)n1 [(S)-15, (2S)-N-{5-[7-chloro-2-(2-methoxypyridin-3-yl)imidazo[1,2-a]-pyridin-3-yl]-6-[2-(1-methylisoquinolin-6-yl)ethynyl]pyridin-2-yl}-2-(methylamino)-propanamide]
							0.4	4.3	5.2	2.1	0.5		CNC(C)C(=O)Nc1ccc(-c2c(-c3ccncc3)nc3cc(C)ccn23)c(C#Cc2ccc3nc(C)ccc3c2)n1 (stereo not shown) [Ex 64, reference compound]
